The text below walks through data of patent US20230054407A1, “OPTICAL BIOPSY STAIN PANELS AND METHODS OF USE” (ARIZONA BOARD OF REGENTS ON BEHALF OF THE UNIVERSITY OF …, priority 2020, published 2023).

The nature of series [1]: In vitro fluorescence emission spectra and compatibility of nucleic acid and protein/cytoplasm dyes. The format is physicochemical. To be noted: for source of the resultant fluorescence emission signal of the mixture: Mitoxantrone mixed with Phloxine B at 100:1 molar ratio. Here is the method:
Additional incompatibility results from overlapping of the component peak emissions.
Daunorubicin (1 μM), Fluorescein (1 nM) and the combination of the two were excited at 375 nm, with resultant fluorescence emission.
With 405 nm excitation, Proflavine at 0.25 μM, Rose Bengal at 10 μM, and the combination result in roughly the same order of magnitude peaks resulting from their respective fluorescence.
FIGS. 8A-8F show emission spectra of various drug dye candidates. FIGS. 8A-8D show Mitoxantrone as a Hematoxylin-alternative candidate at 10 μM, with Phloxine B at 0.1 μM as an Eosin-alternative candidate drug-dye, and a combination of the two excited at different wavelengths: (FIG. 8A) 375 nm, (FIG. 8B) 405 nm, (FIG. 80) 455 nm, and (FIG. 8D) 488 nm. […] Additionally, there was overlap of emission spectra (FIG. 9) and the combination of certain DNA and protein dyes decreased the emission intensity relative to the same concentration of the component dye alone (FIG. 9 and FIG. 10).
The stain panels listed below use a combination of nucleus dyes and protein/cytoplasm dyes that have been optimized for their compatibility.

Another series concerns bovine lung tissue. The series is described as follows: Topical drug-dye staining of ex vivo bovine lung tissue imaged with confocal microscopy. To be noted: for localization of drug-dye: ex vivo bovine lung tissue, qualitatively at the concentrations of FIGS. 2A-2D; for staining pattern: single dye applied topically to ex vivo bovine lung tissue, confocal microscopy. An excerpt: Image field is 635.5 μm tall×wide. Inset is the structure of Proflavine.
Image field is 635.5 μm tall×wide. […]
Imaging was with confocal microscopy, with a bovine lung sample thickness of 10 μm, and an image field of 635.5 μm^2.
Imaging was with confocal microscopy settings at 488 nm excitation after topical application to the bovine lung specimen. Image field is 635.5 μm^2 at 10 μm thickness.
The dyes were pipetted in situ upon bovine tissue ex vivo and examined under confocal microscopy with a 488 nm laser with 10 μm optical thickness and imaged fields being 635.5 μm^2.
Referring to FIG. 1, 50 μl at 20 μM of Proflavine was topically applied directly to ex vivo bovine lung tissue in situ and imaged immediately with confocal microscopy. […] Likewise, Fluorescein, Phenol Red, Phloxine B, and Rose Bengal were each added to ex vivo bovine lung tissue and imaged under confocal microscopy (see FIGS. 2A-2I). […] This combination was then added topically to bovine lung tissue and imaged using confocal microscopy (FIG. 3). […]

Series [2] relates to human breast cancer metastasized to the lung. Put plainly: Staining of human breast cancer metastasized to the lung with Rose Bengal and Proflavine. To be noted: Rose Bengal and Proflavine combined, concentrations similar to FIG. 6A.

The structures appear in SMILES notation.

As for `Nc1c(/N=N/c2ccc(-c3ccc(/N=N/c4cc(S(=O)(=O)O)c5ccccc5c4N)cc3)cc2)cc(S(=O)(=O)O)c2ccccc12` [Congo Red], in series [1], the Approximate peak fluorescence is given as roughly 425 nm.
Turning to `COc1cccc2c1C(=O)c1c(O)c3c(c(O)c1C2=O)C[C@@](O)(C(C)=O)C[C@@H]3O[C@H]1C[C@H](N)[C@H](O)[C@H](C)O1` [Daunorubicin], the “change of fluorescence emission peak with increasing concentrations of Phloxine B” value in series [1] (488 nm excitation, peak around 590 nm) was “progressive decrease of fluorescence emission”.
As for `CN(C)c1ccc2nc3ccc(=[N+](C)C)cc-3sc2c1` [Methylene Blue], the Approximate peak fluorescence in series [1] is roughly 695 nm.
Take `O=C1c2c(O)ccc(O)c2C(=O)c2c(NCCNCCO)ccc(NCCNCCO)c21` [Mitoxantrone]: the Approximate peak fluorescence in series [1] was roughly 685 nm. Moreover, the “concentration dependence of fluorescence” value in series [1] (455 nm excitation) is reported as “concentration-dependent fluorescence”. Besides, the “source of the resultant fluorescence emission signal of the mixture” value in series [1] (375 nm excitation) is listed as “primarily Mitoxantrone”.
As for `O=C([O-])c1c(Cl)c(Cl)c(Cl)c(Cl)c1-c1c2cc(Br)c(=O)c(Br)c-2oc2c(Br)c([O-])c(Br)cc12.[Na+].[Na+]` [Phloxine B], in the series with bovine lung tissue, the localization of drug-dye entry is given as “appeared to localize to cell cytoplasm in addition to the connective tissue fibers”; the staining pattern entry was “variable staining of the proteinaceous connective tissue and cellular cytoplasm, granules or vesicles”. In addition, in series [1], the Approximate peak fluorescence is roughly 550 nm. In addition, the “source of the resultant fluorescence emission signal of the mixture” value in series [1] (488 nm excitation) is “nearly all the fluorescence emission signal from Phloxine B”.
On to `Nc1ccc2cc3ccc(N)cc3nc2c1` [Proflavine], for which the staining pattern entry in the series with bovine lung tissue was “staining like those typical of a fluorescent DNA dye”. The Approximate peak fluorescence in series [1] is listed as roughly 508 nm. Also, the “structure outlined by the stain” value in series [2] is listed as “nucleus”.
As for `O=C([O-])c1c(Cl)c(Cl)c(Cl)c(Cl)c1-c1c2cc(I)c(=O)c(I)c-2oc2c(I)c([O-])c(I)cc12.[Na+].[Na+]` [Rose Bengal], in the series on bovine lung tissue, the localization of drug-dye result is “appeared to localize to cell cytoplasm in addition to the connective tissue fibers”; the staining pattern entry was “variable staining of the proteinaceous connective tissue and cellular cytoplasm, granules or vesicles”. In series [1], the Approximate peak fluorescence was roughly 565 nm. The “structure outlined by the stain” value in series [2] was “proteins”.
